Experimental data as given in patent publication US9029370B2, “Substituted benzamide derivatives” (Hoffmann-La Roche Inc., priority 2011, dated 2015).

How the values were obtained:
[1] = target: rat TAAR1 (Rattus norvegicus (Rat), UniProt Q923Y9); experiment: Radioligand binding assay on rat TAAR1; settings: rat TAAR1, HEK-293 membranes; second value of the pair (line below); read-out: Ki (μM) mouse/rat
Method: (§1) For the construction of expression plasmids the coding sequences of human, rat and mouse TAAR 1 were amplified from genomic DNA essentially as described by Lindemann et al.. The Expand High Fidelity PCR System (Roche Diagnostics) was used with 1.5 mM Mg^2+ and purified PCR products were cloned into pCR2.1-TOPO cloning vector (Invitrogen) following the instructions of the manufacturer. PCR products were subcloned into the pIRESneo2 vector (BD Clontech, Palo Alto, Calif.), and expression vectors were sequence verified before introduction in cell lines.
(§2) HEK293 cells (ATCC # CRL-1573) were cultured essentially as described by Lindemann et al. (2005). For the generation of stably transfected cell lines HEK293 cells were transfected with the pIRESneo2 expression plasmids containing the TAAR coding sequences (described above) with Lipofectamine 2000 (Invitrogen) according to the instructions of the manufacturer, and 24 hrs post transfection the culture medium was supplemented with 1 mg/ml G418 (Sigma, Buchs, Switzerland). After a culture period of about 10 d clones were isolated, expanded and tested for responsiveness to trace amines (all compounds purchased from Sigma) with the cAMP Biotrak Enzyme immunoassay (EIA) System (Amersham) following the non-acetylation EIA procedure provided by the manufacturer.
Radioligand Binding Assay on Rat TAAR1
(§3) Membrane Preparation and Radioligand Binding.
(§4) HEK-293 cells stably expressing rat TAAR1 were maintained at 37° C. and 5% CO2 in DMEM high glucose medium, containing fetal calf serum (10%, heat inactivated for 30 min at 56° C.), penicillin/streptomycin (1%), and 375 μg/ml geneticin (Gibco). Cells were released from culture flasks using trypsin/EDTA, harvested, washed twice with ice-cold PBS (without Ca^2+ and Mg^2+), pelleted at 1′000 rpm for 5 min at 4° C., frozen and stored at −80° C. […] The homogenate was centrifuged at 48′000×g for 30 min at 4° C. Subsequently, the supernatant was removed and discarded, and the pellet resuspended in 20 ml HEPES-NaOH (20 mM, pH 7.4) containing 0.1 mM EDTA using the Polytron (20 s at 14′000 rpm). This procedure was repeated and the final pellet resuspended in HEPES-NaOH containing 0.1 mM EDTA and homogenized using the Polytron. Typically, aliquots of 2 ml membrane portions were stored at −80° C. With each new membrane batch the dissociation constant (Kd) was determined via a saturation curve. […] Nonspecific binding was defined as the amount of ^3[H]-(S)-4-[(ethyl-phenyl-amino)-methyl]-4,5-dihydro-oxazol-2-ylamine bound in the presence of 10 μM unlabeled ligand. All compounds were tested at a broad range of concentrations (10 pM to 10 μM) in duplicates. […] The 96 deep well plates were incubated for 1 hr at 4° C. Incubations were terminated by rapid filtration through Unifilter-96 plates (Packard Instrument Company) and glass filters GF/C (Perkin Elmer) presoaked for 1 hr in polyethylenimine (0.3%) and washed 3 times with 1 ml of cold binding buffer. After addition of 45 μl of Microscint 40 (PerkinElmer) the Unifilter-96 plate was sealed and after 1 hr the ratioactivity counted using a TopCount Microplate Scintillation Counter (Packard Instrument Company).

[2] = target: mouse TAAR1 (Mus musculus (Mouse), UniProt Q923Y8); experiment: Radioligand binding assay on mouse TAAR1; settings: mouse TAAR1, HEK-293 membranes; first value of the pair (before the slash); read-out: Ki (μM) mouse/rat
Method: as §1, §2
Radioligand Binding Assay on Mouse TAAR1
as §3
as §4, with “expressing mouse” for “expressing rat”

Chain of rat TAAR1 (Q923Y9 whole entry): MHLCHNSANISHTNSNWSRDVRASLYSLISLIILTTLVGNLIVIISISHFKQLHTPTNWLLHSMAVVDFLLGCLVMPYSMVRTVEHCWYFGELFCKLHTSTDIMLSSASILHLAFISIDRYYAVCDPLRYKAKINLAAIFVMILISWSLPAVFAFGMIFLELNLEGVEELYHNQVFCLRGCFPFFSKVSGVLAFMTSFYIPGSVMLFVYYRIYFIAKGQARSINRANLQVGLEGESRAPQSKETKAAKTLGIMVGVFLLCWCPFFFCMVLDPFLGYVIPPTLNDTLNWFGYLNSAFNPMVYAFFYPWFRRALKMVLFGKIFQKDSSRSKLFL
Chain of mouse TAAR1 (Q923Y8 whole entry): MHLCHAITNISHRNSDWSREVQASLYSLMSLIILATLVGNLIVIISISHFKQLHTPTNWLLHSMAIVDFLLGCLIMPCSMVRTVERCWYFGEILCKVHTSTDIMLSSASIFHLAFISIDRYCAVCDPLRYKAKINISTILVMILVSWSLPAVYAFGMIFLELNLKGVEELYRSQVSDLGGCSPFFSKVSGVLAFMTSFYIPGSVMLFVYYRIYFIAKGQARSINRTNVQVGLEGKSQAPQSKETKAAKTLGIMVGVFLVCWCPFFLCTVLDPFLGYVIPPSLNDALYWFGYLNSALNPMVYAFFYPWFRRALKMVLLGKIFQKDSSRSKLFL

SMILES | Ki [1] | Ki [2]
O=C(Nc1ccc(Cl)nc1)Nc1ccc(C2CNCCO2)cc1Cl (racemic) [Example 14, (RS)-1-(2-Chloro-4-morpholin-2-yl-phenyl)-3-(6-chloro-pyridin-3-yl)-urea] | 0.0039 µM | –
N#Cc1cc(C2CNCCO2)ccc1NC(=O)c1ccn(-c2ccc(F)cc2)n1 (racemic) [Example 28, (RS)—N-(2-Cyano-4-(morpholin-2-yl)phenyl)-1-(4-fluorophenyl)-1H-pyrazole-3-carboxamide] | – | 0.014 µM
N#Cc1cccc(NC(=O)Nc2ccc(C3CNCCO3)cc2C#N)c1 (racemic) [Example 33, (RS)-1-(2-Cyano-4-morpholin-2-yl-phenyl)-3-(3-cyano-phenyl)-urea] | 1.51 µM | –
O=C(Nc1ccc(Cl)nc1)Nc1ccc(C2CCNC2)cc1Cl (racemic) [Example 38, (RS)-1-(6-Chloro-pyridin-3-yl)-3-(2-chloro-4-pyrrolidin-3-yl-phenyl)-urea] | 0.0191 µM | 0.0029 µM
O=C(Nc1ccc(Cl)nc1)Nc1ccc(C2CCCNC2)cc1Cl (racemic) [Example 41] | 0.009 µM | 0.0015 µM
O=C(Nc1ccc(C2CCCNC2)cc1Cl)c1ccc(Cl)nc1 (racemic) [Example 43, (RS)-6-Chloro-N-(2-chloro-4-piperidin-3-yl-phenyl)-nicotinamide] | 0.367 µM | 0.0164 µM
O=C(Nc1ccc([C@@H]2CNCCO2)cc1F)c1n[nH]c2cc(F)ccc12 [Example 1, 6-Fluoro-1H-indazole-3-carboxylic acid ((R)-2-fluoro-4-morpholin-2-yl-phenyl)-amide] | 0.0051 µM | 0.001 µM
O=C(Nc1ccc([C@H]2CNCCO2)cc1F)c1n[nH]c2cc(F)ccc12 [Example 2, 6-Fluoro-1H-indazole-3-carboxylic acid ((S)-2-fluoro-4-morpholin-2-yl-phenyl)-amide] | 0.0009 µM | 0.0012 µM
N#Cc1cccc(NC(=O)Nc2ccc([C@@H]3CNCCO3)cc2F)c1 [Example 3, 1-(3-Cyano-phenyl)-3-((R)-2-fluoro-4-morpholin-2-yl-phenyl)-urea] | 0.0015 µM | 0.0016 µM
N#Cc1cccc(NC(=O)Nc2ccc([C@H]3CNCCO3)cc2F)c1 [Example 4, 1-(3-Cyano-phenyl)-3-((S)-2-fluoro-4-morpholin-2-yl-phenyl)-urea] | 0.0028 µM | 0.0017 µM
O=C(Nc1ccc(Cl)nc1)Nc1ccc([C@@H]2CNCCO2)cc1F [Example 8, 1-(6-Chloro-pyridin-3-yl)-3-((R)-2-fluoro-4-morpholin-2-yl-phenyl)-urea] | 0.0039 µM | 0.0026 µM
O=C(Nc1ccc(Cl)nc1)Nc1ccc([C@H]2CNCCO2)cc1F [Example 9, 1-(6-Chloro-pyridin-3-yl)-3-((S)-2-fluoro-4-morpholin-2-yl-phenyl)-urea] | 0.0105 µM | 0.0017 µM
O=C(Nc1ccc(C(F)(F)F)nc1)Nc1ccc([C@@H]2CNCCO2)cc1F [Example 10, 1-((R)-2-Fluoro-4-morpholin-2-yl-phenyl)-3-(6-trifluoromethyl-pyridin-3-yl)-urea] | 0.0033 µM | 0.0033 µM
O=C(Nc1ccc(C(F)(F)F)nc1)Nc1ccc([C@H]2CNCCO2)cc1F [Example 11, 1-((S)-2-Fluoro-4-morpholin-2-yl-phenyl)-3-(6-trifluoromethyl-pyridin-3-yl)-urea] | 0.0095 µM | 0.0035 µM
O=C(Nc1ccc([C@@H]2CNCCO2)cc1F)c1ccn(-c2ccc(F)cc2)n1 [Example 12, 1-(4-Fluoro-phenyl)-1H-pyrazole-3-carboxylic acid ((R)-2-fluoro-4-morpholin-2-yl-phenyl)-amide] | 0.0006 µM | 0.0026 µM
O=C(Nc1ccc([C@H]2CNCCO2)cc1F)c1ccn(-c2ccc(F)cc2)n1 [Example 13, 1-(4-Fluoro-phenyl)-1H-pyrazole-3-carboxylic acid ((S)-2-fluoro-4-morpholin-2-yl-phenyl)-amide] | 0.0024 µM | 0.0011 µM
N#Cc1cccc(CNC(=O)Nc2ccc([C@@H]3CNCCO3)cc2F)c1 [Example 15, 1-(3-Cyano-benzyl)-3-((R)-2-fluoro-4-morpholin-2-yl-phenyl)-urea] | 0.0544 µM | 0.0074 µM
Cn1nc(-c2ccccc2)cc1C(=O)Nc1ccc([C@H]2CNCCO2)cc1F [Example 17, 2-Methyl-5-phenyl-2H-pyrazole-3-carboxylic acid ((S)-2-fluoro-4-morpholin-2-yl-phenyl)-amide] | 0.0128 µM | 0.0151 µM
O=C(Nc1ccc(Cl)nc1)Nc1ccc([C@H]2CNCCO2)cc1Cl [Example 19, (S)-1-(2-Chloro-4-morpholin-2-yl-phenyl)-3-(6-chloro-pyridin-3-yl)-urea] | 0.0034 µM | –
O=C(Nc1ccc(Cl)nc1)Nc1ccc([C@@H]2CNCCO2)cc1Cl [Example 20, (R)-1-(2-Chloro-4-morpholin-2-yl-phenyl)-3-(6-chloro-pyridin-3-yl)-urea] | 0.005 µM | –
O=C(Nc1ccc([C@@H]2CNCCO2)cc1F)c1cnn(-c2ccc(F)cc2)c1 [Example 21, (R)—N-(2-fluoro-4-(morpholin-2-yl)phenyl)-1-(4-fluorophenyl)-1H-pyrazole-4-carboxamide] | 0.0022 µM | 0.0032 µM
O=C(Nc1ccc([C@H]2CNCCO2)cc1F)c1cnn(-c2ccc(F)cc2)c1 [Example 22, (S)—N-(2-fluoro-4-(morpholin-2-yl)phenyl)-1-(4-fluorophenyl)-1H-pyrazole-4-carboxamide] | 0.0036 µM | 0.002 µM
Cn1nc(-c2ccccc2)cc1C(=O)Nc1ccc([C@@H]2CNCCO2)cc1F [Example 23, 2-Methyl-5-phenyl-2H-pyrazole-3-carboxylic acid ((R)-2-fluoro-4-morpholin-2-yl-phenyl)-amide] | 0.0033 µM | 0.0254 µM
COc1cc(C(=O)Nc2ccc([C@@H]3CNCCO3)cc2F)cc(Cl)n1 [Example 24, 2-Chloro-N—((R)-2-fluoro-4-morpholin-2-yl-phenyl)-6-methoxy-isonicotinamide] | 0.007 µM | 0.0032 µM
COc1cc(C(=O)Nc2ccc([C@H]3CNCCO3)cc2F)cc(Cl)n1 [Example 25, 2-Chloro-N—((S)-2-fluoro-4-morpholin-2-yl-phenyl)-6-methoxy-isonicotinamide] | 0.0127 µM | 0.0034 µM
N#Cc1cc(F)cc(NC(=O)Nc2ccc([C@H]3CNCCO3)cc2F)c1 [Example 26, 1-(3-Cyano-5-fluoro-phenyl)-3-((S)-2-fluoro-4-morpholin-2-yl-phenyl)-urea] | 0.002 µM | 0.0012 µM
N#Cc1cc(NC(=O)Nc2ccc([C@H]3CNCCO3)cc2F)ccc1F [Example 27, 1-(3-Cyano-4-fluoro-phenyl)-3-((S)-2-fluoro-4-morpholin-2-yl-phenyl)-urea] | 0.0038 µM | 0.0028 µM
